# Source: patent US8575136B2, “2-methylene-1α-hydroxy-18,19,21-trinorvitamin D3 analogs and uses thereof” (Wisconsin Alumni Research Foundation, priority 2006, dated 2013)
# Entries after “also recorded” stand apart in the source; their conditions may differ.
# How the values were obtained:
# HL-60 cells = assay: HL-60 differentiation (nitro blue tetrazolium reduction); type: cell-based, human; conditions: compared to 1α,25-dihydroxyvitamin D3; FIG. 4
# Protocol: The study drugs were dissolved in ethanol and the concentrations determined using UV spectrophotometry. Serial dilutions were prepared so that a range of drug concentrations could be tested without changing the final concentration of ethanol (<0.2%) present in the cell cultures.
# Human promyelocytic leukemia (HL60) cells were grown in RPMI-1640 medium containing 10% fetal bovine serum. The cells were incubated at 37° C. in the presence of 5% CO2.
# HL60 cells were plated at 1.2×10^5 cells/ml. Eighteen hours after plating, cells in duplicate were treated with drug. Four days later, the cells were harvested and a nitro blue tetrazolium reduction assay was performed (Collins et al., 1979; J. Exp. Med. 149:969-974). The percentage of differentiated cells was determined by counting a total of 200 cells and recording the number that contained intracellular black-blue formazan deposits. Verification of differentiation to monocytic cells was determined by measuring phagocytic activity (data not shown).
# [1] = Intestinal calcium transport (everted gut sac method); set-up: species or system Sprague-Dawley rats; conditions: in vivo, rats, ip doses; FIG. 3
# Protocol: (§1) Male, weanling Sprague-Dawley rats were placed on Diet 11 (0.47% Ca) diet+AEK for one week followed by Diet 11 (0.02% Ca)+AEK for 3 weeks. The rats were then switched to a diet containing 0.47% Ca for one week followed by two weeks on a diet containing 0.02% Ca. Dose administration began during the last week on 0.02% calcium diet. Four consecutive ip doses were given approximately 24 hours apart. Twenty-four hours after the last dose, blood was collected from the severed neck and the concentration of serum calcium determined as a measure of bone calcium mobilization. The first 10 cm of the intestine was also collected for intestinal calcium transport analysis using the everted gut sac method. The everted gut sac assay was carried out as previously described by Martin and Deluca, Am. J. Physiol. 216, 1351 (1969); (DeLuca et al., U.S. Pat. No. 4,188,345), which are incorporated by reference as if fully set forth herein.
# Both control and test articles are administered by intraperitoneal injection in 100 microliters for 4-7 consecutive days spaced approximately 24 hours apart.
# [2] = target: T1, full-length recombinant rat vitamin D receptor (Rattus norvegicus, UniProt P13053); assay: Vitamin D receptor binding, competition with [3H]-1,25-(OH)2-D3; conditions: compared to 1α,25-dihydroxyvitamin D3; FIG. 1
# T1 construct: Full-length recombinant rat receptor was expressed in E. coli BL21(DE3) Codon Plus RIL cells; histidine tag (C); made in house; host or cells: E. coli BL21(DE3) Codon Plus RIL
# T1 sequence (P13053 1-423): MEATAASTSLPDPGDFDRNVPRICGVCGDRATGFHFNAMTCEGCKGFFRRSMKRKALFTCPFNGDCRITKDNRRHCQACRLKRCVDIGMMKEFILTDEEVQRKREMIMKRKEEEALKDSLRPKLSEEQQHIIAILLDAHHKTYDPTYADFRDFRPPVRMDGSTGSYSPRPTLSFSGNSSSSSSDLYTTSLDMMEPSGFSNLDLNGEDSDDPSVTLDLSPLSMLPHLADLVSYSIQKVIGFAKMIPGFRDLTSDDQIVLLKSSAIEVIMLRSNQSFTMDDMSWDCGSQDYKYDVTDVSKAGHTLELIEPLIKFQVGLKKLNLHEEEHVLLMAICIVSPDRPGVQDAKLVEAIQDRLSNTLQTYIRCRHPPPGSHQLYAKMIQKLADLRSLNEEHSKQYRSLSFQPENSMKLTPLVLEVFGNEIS
# Protocol: Full-length recombinant rat receptor was expressed in E. coli BL21(DE3) Codon Plus RIL cells and purified to homogeneity using two different column chromatography systems. The first system was a nickel affinity resin that utilizes the C-terminal histidine tag on this protein. The protein that was eluted from this resin was further purified using ion exchange chromatography (S-Sepharose Fast Flow). Aliquots of the purified protein were quick frozen in liquid nitrogen and stored at −80° C. until use. For use in binding assays, the protein was diluted in TEDK50 (50 mM Tris, 1.5 mM EDTA, pH7.4, 5 mM DTT, 150 mM KCl) with 0.1% Chaps detergent. The receptor protein and ligand concentration was optimized such that no more than 20% of the added radiolabeled ligand was bound to the receptor.
# Radiolabeled ligand (^3H-1,25(OH)2D3, ˜159 Ci/mmole) was added in ethanol at a final concentration of 1 nM.
# Radiolabeled and unlabeled ligands were added to 100 mcl of the diluted protein at a final ethanol concentration of <10%, mixed and incubated overnight on ice to reach binding equilibrium. The following day, 100 mcl of hydroxylapatite slurry (50%) was added to each tube and mixed at 10-minute intervals for 30 minutes. […] Total binding was determined from the tubes containing only radiolabeled ligand.
# [3] = system: 24-hydyroxylase (24Ohase) gene promoter upstream of a luciferase reporter gene in ROS 17/2.8 (bone) cells; assay: In vitro transcription assay (luciferase reporter); type: cell-based; conditions: Ros17/2.8 (bone) cells, compared to 1α,25-dihydroxyvitamin D3; FIG. 5
# Protocol: Transcription activity was measured in ROS 17/2.8 (bone) cells that were stably transfected with a 24-hydyroxylase (24Ohase) gene promoter upstream of a luciferase reporter gene (Arbour et al., 1998). Cells were given a range of doses. Sixteen hours after dosing the cells were harvested and luciferase activities were measured using a luminometer. (RLU=relative luciferase units)
# [4] = Bone calcium mobilization (serum calcium); set-up: species or system Sprague-Dawley rats; conditions: in vivo, rats, ip doses; FIG. 2
# Protocol: as §1, with “herein. […]” for “herein.”
# Twenty-four hours after the final dose, approximately 1 ml of blood is allowed to coagulate at room temperature and then centrifuged at 3000×g for 15 minutes. […] The level of calcium is determined by diluting the serum into 0.1% lanthum chloride and measuring the absorbance on an atomic absorption spectrophotometer (Perkin Elmer Model 3110, Shelton, Conn.).
compound,measurement,setting,value
"C=C1[C@H](O)CC(=C/C=C2\CCC[C@@H]3[C@@H](CCCCC(C)C)CC[C@@H]23)C[C@H]1O [SX-99, 2-methylene-1α-hydroxy-18,19,21-trinorvitamin D3]",inducing differentiation of HL-60 cells,HL-60 cells,slightly less active; also recorded: relatively high cell differentiation activity
same,intestinal calcium transport activity,[1],potent calcium transport activity; also recorded: significant intestinal calcium transport activity
same,binding to the recombinant vitamin D receptor,[2],considerably less active; also recorded: relatively high binding
same,stimulating transcription of a reporter gene,[3],less active
same,bone calcium mobilization activity,[4],significant bone calcium mobilization activity; also recorded: good ability to mobilize calcium from bone
